Read-outs that look alike come from different tables or passages of the source.
How the values were obtained:
histamine H2 receptor [1] = target: T1, histamine H2 receptor (Rattus norvegicus, UniProt P25102); assay: Competition binding assay (displacement of ^3H-tiotidine)
T1 construct: endogenous in cells
Source text: (§1) All test animals were used in accordance with the National Institutes of Health Guidelines for the Care and Use of Laboratory Animals and Permission for Use of Laboratory Animals 34401-1/2010/8 and U34401-12/2013/3 issued by the Administration of the Republic of Slovenia for Food Safety, Veterinary and Plant Protection to prepare primary astrocytes cultures from newborn not-treated rat. 3 day old rats were sacrificed by decapitation, followed by removing the brain cortices. Primary cultures of astrocytes were prepared and cultured as previously described. Cells were grown in high-glucose Dulbecco's modified Eagle's medium (DMEM), containing 10% fetal bovine serum (FBS), 1 mM pyruvate, 2 mM glutamine, and 25 μg/ml gentamycin in 95% air-5% CO2. Confluent cultures were shaken at 225 rpm overnight and the medium was changed the next morning; this was repeated a total of three times. After the third overnight shaking, the cells were trypsinized and cultured for 24 h in 10 μM cytosine arabinoside. After reaching confluence again the cells were subcultured into 12-well clusters and grown until becoming confluent again. The confluent cells were detached, washed twice in PBS, and cell sediment was stored at –70°C until used for the binding assay.
In the competition binding experiments, astrocyte cells were incubated together in the presence of different histaminergic ligands in the concentration range from 0.01 nM– 100 μM under the same incubation conditions as above. The concentration of ^3H-tiotidine used was 5 nM. The binding reaction was rapidly terminated and the bound ligand was separated from the unbound by vacuum filtration. The radioactivity trapped on the GF/C glass fiber filters was counted in a liquid scintillation counter (Microbeta, Perkin Elmer, USA).
(§2) The binding experiments were routinely carried out in triplicate and each experiment was repeated at least twice. The results are expressed as means ± SEM. The binding parameters (KD, Bmax, and IC50) were calculated by a non-linear regression method using software Prism6 version 6.00, GraphPad Software Inc. (San Diego, USA). A comparison of the data among the groups was carried out using Student`s unpaired t-test with Welch correction, where two groups of data were compared. Differences were considered significant at p < 0.05.

histamine H2 receptor [2] = target: T1, histamine H2 receptor; assay: ^3H-tiotidine saturation binding assay; settings: cultured neonatal rat astrocytes; for Kd: read-out: equilibrium dissociation constant (KD)
Source text: as §1
0.1 mg of astrocyte cell protein was incubated for 15 minutes at 25°C in 0.15M Na^+/K^+ -phosphate buffer (pH 7.4) or in 0.15M Na^+/K^+ -phosphate buffer made using D2O instead of miliQ water (pH 7.4) in a total volume of 0.25 mL with the indicated concentrations of ^3H-tiotidine (1–15 nM), with a specific activity of 82.2 Ci/mmol. Specific binding represented the difference between total and non-specific binding (binding in the presence of 1 μM cimetidine).
as §2

[3] = MP2/6–31++G(2d,2p) and Langevin dipole calculated value; cited from earlier work
[4] = regular phosphate buffer (control)

T1 sequence (P25102 whole entry): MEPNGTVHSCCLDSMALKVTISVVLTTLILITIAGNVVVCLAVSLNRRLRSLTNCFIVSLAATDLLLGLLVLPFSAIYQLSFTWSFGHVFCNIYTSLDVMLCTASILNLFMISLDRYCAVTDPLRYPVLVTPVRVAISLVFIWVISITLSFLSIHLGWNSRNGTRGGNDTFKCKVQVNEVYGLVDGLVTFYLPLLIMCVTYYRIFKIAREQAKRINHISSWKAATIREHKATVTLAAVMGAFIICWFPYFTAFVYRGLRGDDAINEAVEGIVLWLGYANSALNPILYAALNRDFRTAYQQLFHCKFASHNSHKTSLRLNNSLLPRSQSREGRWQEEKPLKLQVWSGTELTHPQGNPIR

`Cc1ncc(CCN)[nH]1` [2-methylhistamine] showed an IC50 (histamine H2 receptor [1]) of 4.17 nM.

With `CN=C(NC#N)NCCSCc1csc(N=C(N)N)n1` [^3H-tiotidine] the “maximal binding capacity (Bmax)” value (histamine H2 receptor [2]; deuterated medium (D2O)) was 17.1 ± 2.7 fmol/mg protein, the Kd (histamine H2 receptor [2]; deuterated medium (D2O)) was 7.4 ± 2.4 nM and the “maximal binding capacity (Bmax)” value (histamine H2 receptor [2]; [4]) was 18.6 ± 1.7 fmol/mg protein. For the same molecule, the Kd (histamine H2 receptor [2]; [4]) was 4.7 ± 1 nM.

In the case of `NCCc1c[nH]cn1` [deuterated histamine], the IC50 (histamine H2 receptor [1]; deuterated (D), read-out: reported measured value (ligand binding constant)) is reported as 16 nM.

In the case of `[2H]N([2H])CCc1cn([2H])cn1` [deuterated histamine], the binding free energy (histamine H2 receptor [1]; deuterated (D), from measured value 16 nM) is reported as “–10.59 kcal/mol”.

In the case of `NCCc1c[nH]cn1` [histamine], the binding free energy (histamine H2 receptor [1]; control (H), from measured value 56 nM) is reported as “–9.86 kcal/mol”, the IC50 (histamine H2 receptor [1]; control (H), read-out: reported measured value (ligand binding constant)) is reported as 56 nM and the “ΔEINTER(exp) ΔΔE(H2O–D2O); experimental difference in binding free energy upon deuteration” value (histamine H2 receptor [1]; ΔGBIND(H→D) = −RT ln(KD/KH)) is reported as 0.73 kcal mol^–1. For the same molecule, the hydration free energy [3] was “–68.6 kcal mol^–1”.

Reference: paper PMC4861267 (PLoS ONE, 2016)
